# From patent US9594084B2, “Phosphorylation of histones and uses thereof” (H. LEE MOFFITT CANCER CENTER AND RESEARCH INSTITUTE, priority 2012, dated 2017)
# Entries after “also recorded” stand apart in the source; their conditions may differ.
# Key:
# Xenopus laevis embryos = test system: Xenopus laevis embryos
# Description: Table 4 provides the phenotype distribution for surviving embryos (raw data are identical to those in Table 3).
# Ack1 [1] = target: T1, Ack1 (Homo sapiens, UniProt Q07912); assay type: biochemical
# T1 sequence (Q07912 whole entry): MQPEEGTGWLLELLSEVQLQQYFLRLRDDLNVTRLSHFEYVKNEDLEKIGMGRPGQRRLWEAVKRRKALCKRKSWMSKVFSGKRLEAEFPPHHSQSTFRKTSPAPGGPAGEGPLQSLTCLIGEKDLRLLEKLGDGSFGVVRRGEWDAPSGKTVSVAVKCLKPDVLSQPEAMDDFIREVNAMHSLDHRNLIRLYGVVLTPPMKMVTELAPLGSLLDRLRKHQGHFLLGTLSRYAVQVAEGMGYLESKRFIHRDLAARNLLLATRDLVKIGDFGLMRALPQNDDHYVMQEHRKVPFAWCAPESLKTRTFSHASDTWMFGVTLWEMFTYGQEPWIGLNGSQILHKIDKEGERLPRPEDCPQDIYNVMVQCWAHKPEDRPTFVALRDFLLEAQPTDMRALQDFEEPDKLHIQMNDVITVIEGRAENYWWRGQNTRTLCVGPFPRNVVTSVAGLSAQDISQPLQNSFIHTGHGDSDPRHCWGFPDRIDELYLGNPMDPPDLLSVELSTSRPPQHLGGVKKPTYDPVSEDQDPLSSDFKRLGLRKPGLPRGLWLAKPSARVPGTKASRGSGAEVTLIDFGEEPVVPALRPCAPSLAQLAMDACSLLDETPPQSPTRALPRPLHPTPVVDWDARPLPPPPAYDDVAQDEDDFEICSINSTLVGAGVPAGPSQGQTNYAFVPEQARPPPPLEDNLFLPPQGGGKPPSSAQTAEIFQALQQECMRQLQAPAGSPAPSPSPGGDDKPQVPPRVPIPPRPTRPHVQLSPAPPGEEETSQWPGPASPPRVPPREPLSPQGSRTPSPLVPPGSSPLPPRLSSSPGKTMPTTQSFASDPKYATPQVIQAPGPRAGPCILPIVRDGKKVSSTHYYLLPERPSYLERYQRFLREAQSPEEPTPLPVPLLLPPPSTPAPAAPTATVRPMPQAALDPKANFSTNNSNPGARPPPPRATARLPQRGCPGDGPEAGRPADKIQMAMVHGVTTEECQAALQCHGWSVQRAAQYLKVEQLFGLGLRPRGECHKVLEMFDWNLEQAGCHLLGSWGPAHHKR
# Method: Purified histone H3 and Ack1 were incubated at 37° C. for 1 hour with or without AIM-100 followed by immunoblotting with indicated antibodies.
# [2] = test system: pTyr-AR recruitment to PSA, NKX3,1 and TMPRSS2 promoters; assay: ChIP-qPCR for pTyr267-AR binding to PSA, NKX3.1 and TMPRSS2 AREs in LAPC4 cells; assay type: cell-based; conditions: EGF (10 ng/ml, 1 hr), AIM-100 0.8 μM, 16 hr
# Method: FIG. 8A-8C are bar graphs showing Ack1 inhibition by AIM-100 suppressed recruitment of pTyr-AR to PSA (FIG. 8A), NKX3.1 (FIG. 8B) and TMPRSS2 (FIG. 8C) promoters. LAPC4 cells were treated with DHT (5 nM, 16 hr) or EGF (10 ng/ml, 1 hr), and AIM-100 (0.8 μM, 16 hr) and ChIP analysis for pTyr267-AR binding to the PSA, NKX3.1 and TMPRSS2 AREs was performed followed by qPCR. *p=0.001; **p=0.006; ***p=0.014.
# LAPC4 cells were treated with DHT (5 nM, 16 hr), EGF (10 ng/ml, 1 hr), or EGF and AIM-100 (0.8 μM, 16 hr) and ChIP analysis for pTyr267-AR binding to the PSA, NKX3.1 and TMPRSS2 AREs was performed followed by qPCR. Ack1 inhibition by AIM-100 suppressed recruitment of pTyr-AR to PSA, NKX3,1 and TMPRSS2 promoters (FIGS. 8A-8C).
# [3] = test system: LNCaP-caAck expressing cells; assay: LNCaP-caAck prostate xenograft tumor growth in castrated nude male mice; assay type: in vivo; conditions: 4 mg/kg of body weight per injection, five times
# Method: FIG. 9 is a line graph showing prostate xenograft tumor volume (mm^3) in castrated nude male mice treated with AIM-100 Ack1 inhibitor or DMSO control. Castrated nude male mice were injected with LNCaP-caAck expressing cells. Mice were injected with AIM-100 (4 mg/kg of body weight per injection) on five times (n=8) and tumor volumes were measured.
# Castrated nude male mice were injected with LNCaP-caAck expressing cells. Mice were injected with AIM-100 (4 mg/kg of body weight per injection) on five times (n=8) and tumor volumes were measured.
# H3K9 and K27 methylation = assay: Immunoblot of H3K9/H3K27 methylation in LAPC4 cells; assay type: cell-based
# Method: FIG. 25 is an immunoblot of lysates from LAPC4 cells that were untreated (column 1), treated with EGF (column 2), or treated with EGF and AIM-100 (column 3) that were immunoblotted with H3K9 dimethyl (top panel), H3K27 (middle panel), or H3 (bottom panel) antibodies.
# The prostate cancer derived cells, LAPC4 were treated with AIM-100 (7 uM, 16 hours). The equal amount of cell lysates were subjected to immunoblotting with H3K9me3 and histone H3 antibodies. […] The histone H3 antibodies were used as a control to indicate equal amount of protein.
# (§1) LAPC4 cells were treated with EGF or EGF and AIM-100 and the lysates were immunoblotted with H3K9 dimethyl and H3K27 dimethyl antibodies. Thus, marking of chromatin with H3-Tyr99-phosphorylation within AR-target gene promoters may suppress repressive dimethylation leading to transcriptional activation in androgen-deprived environment of prostate tumors.
# as §1, with “H3K9” for “H3K9 dimethyl”, “H3K27” for “H3K27 dimethyl”
# Ack1 [4] = target: T2, Ack1 (Homo sapiens, UniProt Q07912, E346K); assay type: biochemical; conditions: 5 uM for 1 hour at 30° C.
# T2 construct: HA; made in house
# T2 sequence (Q07912 whole entry E346K): as the sequence (Q07912 whole entry) above, with E346K counted along it
# Ack1 [5] = target: T1, Ack1; assay type: biochemical; conditions: ELISA, read at 450 nm
# Method: WEE1 and Ack1 are two non-receptor tyrosine kinases or NRTKs that have known nuclear functions. To determine whether WEE1 and Ack1 can directly target H4 for Tyr88-phosphorylation, this study performed in vitro kinase assay. In brief, the Streptavidin coated 96-well plates (R&D systems) were incubated with biotinylated H4-derived peptide […] (SEQ ID NO: 64) for 1 hour. The plates were washed and the purified WEE1 or Ack1 were added in kinase buffer (20 mM HEPES, 150 mM NaCl, 0.5% Triton X-100, 10% Glycerol, phosphatase and protease inhibitors) containing ATP and MgCl2. After 2 hours of incubation, plates were washed with phosphate buffered saline containing 0.1% Tween 20 (PBST) and blocked in 3% BSA. The pY88-H4 antibodies (at 1:500 dilution) were added and incubated for 1 hour. Unbound antibodies were washed and HRP-conjugated anti-mouse secondary Antibodies (1:2000) were added. Magnitude of phosphorylation was detected using developer solution (OPD tablets, Sigma) and the plates were read at 450 nm. As a negative control, no kinase and no peptide reactions were used. The biotinylated phosphopeptide […]p[…] (SEQ ID NO: 65) was used as a positive control.
# ATM = target: T3, ATM (Homo sapiens, UniProt Q13315); assay: IR-induced de-phosphorylation of pY37-H2B in H1975 cells (immunoblot); assay type: cell-based; conditions: H1975 irradiated (15GY)
# T3 construct: endogenous in cells; host or cells: H1975
# T3 sequence (Q13315 whole entry): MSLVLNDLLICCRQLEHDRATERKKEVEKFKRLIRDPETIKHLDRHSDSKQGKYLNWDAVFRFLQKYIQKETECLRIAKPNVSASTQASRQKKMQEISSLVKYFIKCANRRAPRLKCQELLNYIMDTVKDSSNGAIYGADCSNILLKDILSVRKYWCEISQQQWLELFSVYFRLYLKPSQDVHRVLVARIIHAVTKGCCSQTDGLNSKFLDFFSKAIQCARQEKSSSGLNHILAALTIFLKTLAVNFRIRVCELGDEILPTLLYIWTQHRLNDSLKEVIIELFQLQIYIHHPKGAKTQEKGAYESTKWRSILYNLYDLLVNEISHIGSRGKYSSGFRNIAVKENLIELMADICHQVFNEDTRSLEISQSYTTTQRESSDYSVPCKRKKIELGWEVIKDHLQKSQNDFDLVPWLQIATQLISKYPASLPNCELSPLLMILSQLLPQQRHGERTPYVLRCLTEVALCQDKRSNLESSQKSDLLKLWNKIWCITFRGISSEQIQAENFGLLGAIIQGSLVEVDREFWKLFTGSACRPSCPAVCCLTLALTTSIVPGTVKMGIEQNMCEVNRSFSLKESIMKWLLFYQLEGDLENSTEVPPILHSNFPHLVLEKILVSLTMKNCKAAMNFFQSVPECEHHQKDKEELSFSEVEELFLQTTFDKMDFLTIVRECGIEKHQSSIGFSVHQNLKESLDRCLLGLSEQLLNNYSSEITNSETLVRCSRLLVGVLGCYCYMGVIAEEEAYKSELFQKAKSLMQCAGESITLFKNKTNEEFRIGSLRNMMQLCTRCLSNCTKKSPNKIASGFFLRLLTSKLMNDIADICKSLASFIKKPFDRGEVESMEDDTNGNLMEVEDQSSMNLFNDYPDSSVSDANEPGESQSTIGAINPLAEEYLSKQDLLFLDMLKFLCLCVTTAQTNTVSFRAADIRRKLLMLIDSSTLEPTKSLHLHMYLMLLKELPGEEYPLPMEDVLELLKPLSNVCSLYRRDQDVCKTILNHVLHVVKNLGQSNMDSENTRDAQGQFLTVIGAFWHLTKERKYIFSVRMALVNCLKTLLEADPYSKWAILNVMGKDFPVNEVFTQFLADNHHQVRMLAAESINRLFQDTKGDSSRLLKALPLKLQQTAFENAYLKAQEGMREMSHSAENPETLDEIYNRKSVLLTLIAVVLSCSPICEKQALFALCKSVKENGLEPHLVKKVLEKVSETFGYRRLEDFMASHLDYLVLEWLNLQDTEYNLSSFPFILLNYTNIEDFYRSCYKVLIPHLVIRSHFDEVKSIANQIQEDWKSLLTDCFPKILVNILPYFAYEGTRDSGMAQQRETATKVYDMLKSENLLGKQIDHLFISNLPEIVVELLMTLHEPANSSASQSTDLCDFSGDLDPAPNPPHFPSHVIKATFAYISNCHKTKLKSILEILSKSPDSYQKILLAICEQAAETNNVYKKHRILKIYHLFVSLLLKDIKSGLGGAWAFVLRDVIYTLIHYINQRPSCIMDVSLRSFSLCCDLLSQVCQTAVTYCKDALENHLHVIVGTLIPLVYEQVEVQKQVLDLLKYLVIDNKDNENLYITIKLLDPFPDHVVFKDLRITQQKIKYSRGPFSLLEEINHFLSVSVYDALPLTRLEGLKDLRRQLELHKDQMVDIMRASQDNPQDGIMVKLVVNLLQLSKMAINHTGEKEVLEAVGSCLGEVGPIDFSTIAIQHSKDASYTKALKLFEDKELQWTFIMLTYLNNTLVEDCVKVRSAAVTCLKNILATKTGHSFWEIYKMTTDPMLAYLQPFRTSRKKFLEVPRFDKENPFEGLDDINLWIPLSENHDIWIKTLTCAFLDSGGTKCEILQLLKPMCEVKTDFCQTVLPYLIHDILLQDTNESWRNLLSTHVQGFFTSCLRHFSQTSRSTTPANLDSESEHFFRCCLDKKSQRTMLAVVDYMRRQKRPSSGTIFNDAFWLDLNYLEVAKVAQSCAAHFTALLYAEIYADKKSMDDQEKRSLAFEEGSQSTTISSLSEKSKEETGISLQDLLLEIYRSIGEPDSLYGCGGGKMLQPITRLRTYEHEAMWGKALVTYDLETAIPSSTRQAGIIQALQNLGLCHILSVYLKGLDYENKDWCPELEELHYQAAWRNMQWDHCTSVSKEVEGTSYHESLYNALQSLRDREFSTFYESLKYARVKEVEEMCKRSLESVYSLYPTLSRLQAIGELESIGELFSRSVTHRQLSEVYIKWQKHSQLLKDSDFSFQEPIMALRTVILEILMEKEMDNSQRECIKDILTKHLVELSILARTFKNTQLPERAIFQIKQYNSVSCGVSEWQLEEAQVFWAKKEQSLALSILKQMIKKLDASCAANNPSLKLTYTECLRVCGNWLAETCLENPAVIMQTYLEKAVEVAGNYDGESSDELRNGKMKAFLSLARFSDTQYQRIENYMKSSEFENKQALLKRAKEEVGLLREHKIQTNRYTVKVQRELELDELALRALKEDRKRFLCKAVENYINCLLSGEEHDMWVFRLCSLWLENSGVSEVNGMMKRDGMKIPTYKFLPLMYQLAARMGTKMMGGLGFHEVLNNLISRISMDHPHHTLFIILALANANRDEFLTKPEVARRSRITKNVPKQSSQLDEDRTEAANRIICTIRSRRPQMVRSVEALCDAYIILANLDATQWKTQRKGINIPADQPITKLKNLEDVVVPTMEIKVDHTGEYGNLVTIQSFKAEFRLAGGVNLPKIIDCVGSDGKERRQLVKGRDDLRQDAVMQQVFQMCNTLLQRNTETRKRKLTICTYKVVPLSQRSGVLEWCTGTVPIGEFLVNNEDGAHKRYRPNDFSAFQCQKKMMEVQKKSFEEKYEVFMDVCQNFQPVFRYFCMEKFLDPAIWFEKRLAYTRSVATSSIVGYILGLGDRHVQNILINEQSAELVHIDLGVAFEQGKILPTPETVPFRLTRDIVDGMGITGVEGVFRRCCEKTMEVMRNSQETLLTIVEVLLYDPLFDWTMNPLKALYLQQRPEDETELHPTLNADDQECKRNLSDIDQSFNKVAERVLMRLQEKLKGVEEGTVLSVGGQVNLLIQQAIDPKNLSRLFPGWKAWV
# Description: Whole cell extracts were immunoblotted with indicated antibodies.
# To determine whether pY37-H2B de-phosphorylation is regulated by ATM recruited to the sites of DSBs by the MRN complex, Applicants treated the cells with the ATM inhibitor Ku55393. […] EYA in turn interacted with H2AX executing a damage-signal-dependent dephosphorylation of Tyr142, that is constitutively phosphorylated in the absence of DNA damage (Cook, P. J. et al. (2009) Nature, 458(7238):591-596).
# [6] = Table 3, of total injected embryos
compound,measurement,setting,value
c1ccc(-c2oc3ncnc(NC[C@@H]4CCCO4)c3c2-c2ccccc2)cc1 [AIM-100],"abn/delay, gastrulation is abnormal or delayed (% of total)",Xenopus laevis embryos; [6],(6.7%)
same,"abn/delay, gastrulation is abnormal or delayed (number of embryos)",Xenopus laevis embryos; [6],15
same,dead (% of total),Xenopus laevis embryos; [6],(43%)
same,dead (number of embryos),Xenopus laevis embryos; [6],97
same,"epib blk, epiboly block phenotype (% of total)",Xenopus laevis embryos; [6],(29%)
same,"epib blk, epiboly block phenotype (number of embryos)",Xenopus laevis embryos; [6],65
same,"epib red, partial phenotype (% of total)",Xenopus laevis embryos; [6],(8%)
same,"epib red, partial phenotype (number of embryos)",Xenopus laevis embryos; [6],18
same,norm. (% of total),Xenopus laevis embryos; [6],(11%)
same,norm. (number of embryos),"Xenopus laevis embryos; Table 3, of total injected embryos, antibodies 200 ng/em, AIM-100 200 pM/em",24
same,abn/delay (% of survivors),"Xenopus laevis embryos; Table 4, surviving embryos",12%
same,abn/delay (number of embryos),"Xenopus laevis embryos; Table 4, surviving embryos",15
same,epib blk (number of embryos),"Xenopus laevis embryos; Table 4, surviving embryos",65
same,epib red (number of embryos),"Xenopus laevis embryos; Table 4, surviving embryos",18
same,normal (% of survivors),"Xenopus laevis embryos; Table 4, surviving embryos",19%
same,normal (number of embryos),"Xenopus laevis embryos; Table 4, surviving embryos",24
same,mortality rate,"Xenopus laevis embryos; by the onset of gastrulation (~20 hours after microinjection at the 2-cell stage, 16° C.)",43-45%
same,timing or pattern of early cleavages,Xenopus laevis embryos; injected embryos,did not alter
same,"epib blk, epiboly block/involution failure (% of survivors)",Xenopus laevis embryos; surviving embryos,51%
same,"epib red, partial reduced epiboly phenotype (% of survivors)",Xenopus laevis embryos; surviving embryos,14%
same,Ack1 phosphorylation of H3 at Tyr99,Ack1 [1],significantly compromised
same,"recruitment of pTyr-AR to PSA, NKX3,1 and TMPRSS2 promoters",[2],suppressed
same,prostate xenograft tumor growth,[3],mitigated the growth; also recorded: partially suppresses
same,H3K9 and K27 dimethylation and trimethylation,H3K9 and K27 methylation,increased
same,H3 K9 trimethylation,"H3K9 and K27 methylation; LAPC4 cells, 7 uM, 16 hours",increased; also recorded: significant increase
same,H3K9 and K27 dimethylation,"H3K9 and K27 methylation; LAPC4 cells, EGF and AIM-100",increased
same,H4 pTyr51-phosphorylation by purified E346K-Ack1,Ack1 [4],abrogated
same,H4 Tyr88-phosphorylation by Ack1,Ack1 [5],significantly decreased
O=c1cc(-c2cccc3c2Sc2ccccc2S3)oc(N2CCOCC2)c1 [Ku55393],IR-induced de-phosphorylation of pY37-H2B,ATM,prevented
